PubChem BioAssay AID180 (DTP/NCI, 2004)
Several values for one entry are separate records, joined by “and”; a condition that tells them apart may be missing. Identical values can stand only once.

Test system: BDF1 mice, Adenocarcinoma 755 s.c., tumor weight T/C
Assay: NCI In Vivo Anticancer Drug Screen. Data for tumor model Adenocarcinoma 755 (subcutaneous) in B6D2F1 (BDF1) mice
Settings: endpoint: mean tumor weight, higher = larger tumour
Summary of the method: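 Compound activity was tested in mice carrying transplanted tumors. Survival or tumor size was measured, and each value is the treated-group measurement divided by that of the vehicle-treated control group (T/C).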

[1] = dose: 6.0 mg/kg/injection, schedule: Q01DX011 (ip), vehicle: carboxymethylcellulose (CMC)
[2] = dose: 12.0 mg/kg/injection, schedule: Q01DX011 (ip), vehicle: carboxymethylcellulose (CMC)
[3] = dose: 25.0 mg/kg/injection, schedule: Q01DX011 (ip), vehicle: carboxymethylcellulose (CMC)

Question: `S=c1nc[nH]c2c1ncn2C1CCCO1` (stereo not given) was tested. Which T/C (dose: 0.5 mg/kg/injection, schedule: Q01DX011 (ip), vehicle: carboxymethylcellulose (CMC)) did it give?
Answer: 26 % of control

Question: And the T/C (dose: 1.0 mg/kg/injection, schedule: Q01DX011 (ip), vehicle: carboxymethylcellulose (CMC))?
Answer: 75 % of control

Question: And the T/C (dose: 1.5 mg/kg/injection, schedule: Q01DX011 (ip), vehicle: carboxymethylcellulose (CMC))?
Answer: 47 % of control

Question: And the T/C [1]?
Answer: 11 % of control

Question: What about the T/C [2] of the same compound?
Answer: 6 % of control

Question: What about the T/C [3] of the same compound?
Answer: 4 % of control

Question: And the T/C (dose: 50.0 mg/kg/injection, schedule: Q01DX011 (ip), vehicle: carboxymethylcellulose (CMC))?
Answer: 6 % of control

Question: And the T/C (dose: 100.0 mg/kg/injection, schedule: Q01DX011 (ip), vehicle: carboxymethylcellulose (CMC))?
Answer: 6 % of control

Question: With `CCCCN(C)/N=N/c1nc[nH]c1C(N)=O` as the compound, how does the T/C (dose: 80.0 mg/kg/injection, schedule: Q01DX011 (ip), vehicle: carboxymethylcellulose (CMC)) read?
Answer: 4 % of control

Question: Which T/C (dose: 5.0 mg/kg/injection, schedule: Q01DX011 (ip), vehicle: other) does the source give for `CC(=O)N(C(C)C)C(C)C` here?
Answer: 95 % of control

Question: What about the T/C (dose: 10.0 mg/kg/injection, schedule: Q01DX011 (ip), vehicle: other) of the same compound?
Answer: 91 % of control

Question: For `CCCCn1cnc2c([N+](C)(C)C)ncnc21`, which T/C (dose: 3.75 mg/kg/injection, schedule: Q01DX011 (ip), vehicle: carboxymethylcellulose (CMC)) is on record?
Answer: 66 % of control

Question: What about the T/C (dose: 15.0 mg/kg/injection, schedule: Q01DX011 (ip), vehicle: carboxymethylcellulose (CMC)) of the same compound?
Answer: 33 % of control and 38 % of control

Question: How did the T/C (dose: 15.0 mg/kg/injection, schedule: Q01DX011 (ip), vehicle: methylcellulose (MC)) turn out when `CCN(CC)c1nc(SCc2ccc(Cl)cc2Cl)ncc1C` was run?
Answer: 56 % of control

Question: And the T/C (dose: 31.0 mg/kg/injection, schedule: Q01DX011 (ip), vehicle: methylcellulose (MC))?
Answer: 89 % of control

Question: What about the T/C (dose: 62.0 mg/kg/injection, schedule: Q01DX011 (ip), vehicle: methylcellulose (MC)) of the same compound?
Answer: 71 % of control

Question: And the T/C (dose: 125.0 mg/kg/injection, schedule: Q01DX011 (ip), vehicle: methylcellulose (MC))?
Answer: 61 % of control

Question: And the T/C (dose: 250.0 mg/kg/injection, schedule: Q01DX011 (ip), vehicle: methylcellulose (MC))?
Answer: 54 % of control

Question: What does the source list for `O=C(CCBr)N1CN(C(=O)CCBr)CN(C(=O)CCBr)C1`?
Answer: T/C (dose: 57.0 mg/kg/injection, schedule: Q01DX011 (ip), vehicle: methylcellulose (MC)): 117 % of control; T/C (dose: 113.0 mg/kg/injection, schedule: Q01DX011 (ip), vehicle: methylcellulose (MC)): 97 % of control; T/C (dose: 225.0 mg/kg/injection, schedule: Q01DX011 (ip), vehicle: methylcellulose (MC)): 80 % of control

Question: Which T/C (dose: 31.0 mg/kg/injection, schedule: Q01DX011 (ip), vehicle: other) does the source give for `O=C(O)C(O)C(F)(F)F` (stereo not given) here?
Answer: 89 % of control

Question: What about the T/C (dose: 62.5 mg/kg/injection, schedule: Q01DX011 (ip), vehicle: other) of the same compound?
Answer: 82 % of control

Question: And the T/C (dose: 125.0 mg/kg/injection, schedule: Q01DX011 (ip), vehicle: other)?
Answer: 111 % of control

Question: What about the T/C (dose: 250.0 mg/kg/injection, schedule: Q01DX011 (ip), vehicle: other) of the same compound?
Answer: 46 % of control

Question: How did the T/C (dose: 150.0 mg/kg/injection, schedule: Q01DX011 (ip), vehicle: carboxymethylcellulose (CMC)) turn out when `O=C(O)CCC(=O)Nc1nccs1` was run?
Answer: 71 % of control

Question: What about the T/C (dose: 300.0 mg/kg/injection, schedule: Q01DX011 (ip), vehicle: carboxymethylcellulose (CMC)) of the same compound?
Answer: 83 % of control

Question: And the T/C (dose: 600.0 mg/kg/injection, schedule: Q01DX011 (ip), vehicle: carboxymethylcellulose (CMC))?
Answer: 63 % of control

Question: For `OCn1cccn1`, which T/C (dose: 20.0 mg/kg/injection, schedule: Q01DX011 (ip), vehicle: other) is on record?
Answer: 68 % of control

Question: What about the T/C (dose: 20.0 mg/kg/injection, schedule: Q01DX011 (ip), vehicle: saline) of the same compound?
Answer: 89 % of control

Question: And the T/C (dose: 40.0 mg/kg/injection, schedule: Q01DX011 (ip), vehicle: other)?
Answer: 23 % of control

Question: And the T/C (dose: 40.0 mg/kg/injection, schedule: Q01DX011 (ip), vehicle: saline)?
Answer: 45 % of control

Question: And the T/C (dose: 80.0 mg/kg/injection, schedule: Q01DX011 (ip), vehicle: other)?
Answer: 2 % of control

Question: And the T/C (dose: 80.0 mg/kg/injection, schedule: Q01DX011 (ip), vehicle: saline)?
Answer: 27 % of control

Question: And the T/C (dose: 160.0 mg/kg/injection, schedule: Q01DX011 (ip), vehicle: saline)?
Answer: 2 % of control

Question: What does the source list for `Nc1nc(SCc2ccc(Cl)cc2Cl)c2ncn(C3OC(CO)C(O)C3O)c2n1` (stereo not given)?
Answer: T/C (dose: 4.69 mg/kg/injection, schedule: Q01DX011 (ip), vehicle: methylcellulose (MC)): 51 % of control; T/C (dose: 9.38 mg/kg/injection, schedule: Q01DX011 (ip), vehicle: methylcellulose (MC)): 49 % of control; T/C (dose: 18.75 mg/kg/injection, schedule: Q01DX011 (ip), vehicle: methylcellulose (MC)): 21 % of control; T/C (dose: 37.5 mg/kg/injection, schedule: Q01DX011 (ip), vehicle: methylcellulose (MC)): 2 % of control

Question: Which T/C (dose: 0.75 mg/kg/injection, schedule: Q01DX011 (ip), vehicle: carboxymethylcellulose (CMC)) does the source give for `CCn1cnc2c(=S)nc[nH]c21` here?
Answer: 100 % of control

Question: And the T/C (dose: 0.75 mg/kg/injection, schedule: Q#A X022 (ip), vehicle: carboxymethylcellulose (CMC))?
Answer: 18 % of control

Question: And the T/C (dose: 1.5 mg/kg/injection, schedule: Q01DX006 (iv), vehicle: carboxymethylcellulose (CMC))?
Answer: 121 % of control

Question: And the T/C (dose: 1.5 mg/kg/injection, schedule: Q01DX011 (im), vehicle: carboxymethylcellulose (CMC))?
Answer: 14 % of control

Question: What about the T/C (dose: 1.5 mg/kg/injection, schedule: Q01DX011 (sc), vehicle: carboxymethylcellulose (CMC)) of the same compound?
Answer: 39 % of control

Question: And the T/C (dose: 1.5 mg/kg/injection, schedule: Q#A X022 (ip), vehicle: carboxymethylcellulose (CMC))?
Answer: 1 % of control

Question: And the T/C (dose: 3.0 mg/kg/injection, schedule: Q01DX006 (iv), vehicle: carboxymethylcellulose (CMC))?
Answer: 22 % of control

Question: What about the T/C (dose: 3.0 mg/kg/injection, schedule: Q01DX011 (im), vehicle: carboxymethylcellulose (CMC)) of the same compound?
Answer: 5 % of control

Question: What about the T/C (dose: 3.0 mg/kg/injection, schedule: Q01DX011 (ip), vehicle: carboxymethylcellulose (CMC)) of the same compound?
Answer: 6 % of control and 19 % of control

Question: What about the T/C (dose: 3.0 mg/kg/injection, schedule: Q01DX011 (sc), vehicle: carboxymethylcellulose (CMC)) of the same compound?
Answer: 17 % of control

Question: What about the T/C (dose: 3.0 mg/kg/injection, schedule: Q#A X022 (ip), vehicle: carboxymethylcellulose (CMC)) of the same compound?
Answer: 1 % of control

Question: And the T/C (dose: 4.5 mg/kg/injection, schedule: Q03DX004 (ip), vehicle: carboxymethylcellulose (CMC))?
Answer: 24 % of control

Question: And the T/C (dose: 4.6 mg/kg/injection, schedule: Q01DX011 (ip), vehicle: carboxymethylcellulose (CMC))?
Answer: 58 % of control

Question: What about the T/C (dose: 4.62 mg/kg/injection, schedule: Q01DX011 (ip), vehicle: carboxymethylcellulose (CMC)) of the same compound?
Answer: 1 % of control

Question: And the T/C (dose: 6.0 mg/kg/injection, schedule: Q01DX006 (iv), vehicle: carboxymethylcellulose (CMC))?
Answer: 15 % of control

Question: And the T/C (dose: 6.0 mg/kg/injection, schedule: Q01DX011 (im), vehicle: carboxymethylcellulose (CMC))?
Answer: 1 % of control

Question: And the T/C [1]?
Answer: 4 % of control and 13 % of control

Question: And the T/C (dose: 6.0 mg/kg/injection, schedule: Q01DX011 (sc), vehicle: carboxymethylcellulose (CMC))?
Answer: 3 % of control

Question: And the T/C (dose: 6.0 mg/kg/injection, schedule: Q#A X022 (ip), vehicle: carboxymethylcellulose (CMC))?
Answer: 1 % of control

Question: What about the T/C (dose: 9.0 mg/kg/injection, schedule: Q03DX004 (ip), vehicle: carboxymethylcellulose (CMC)) of the same compound?
Answer: 23 % of control

Question: What about the T/C (dose: 9.2 mg/kg/injection, schedule: Q01DX011 (ip), vehicle: carboxymethylcellulose (CMC)) of the same compound?
Answer: 20 % of control

Question: What about the T/C (dose: 9.25 mg/kg/injection, schedule: Q01DX011 (ip), vehicle: carboxymethylcellulose (CMC)) of the same compound?
Answer: 1 % of control

Question: And the T/C (dose: 9.25 mg/kg/injection, schedule: Q01DX011 (oral), vehicle: carboxymethylcellulose (CMC))?
Answer: 1 % of control

Question: And the T/C (dose: 11.0 mg/kg/injection, schedule: Q07DX002 (ip), vehicle: carboxymethylcellulose (CMC))?
Answer: 53 % of control

Question: And the T/C (dose: 12.0 mg/kg/injection, schedule: Q01DX006 (iv), vehicle: carboxymethylcellulose (CMC))?
Answer: 3 % of control

Question: And the T/C [2]?
Answer: 3 % of control

Question: What about the T/C (dose: 18.0 mg/kg/injection, schedule: Q03DX004 (ip), vehicle: carboxymethylcellulose (CMC)) of the same compound?
Answer: 4 % of control

Question: And the T/C (dose: 18.5 mg/kg/injection, schedule: Q01DX011 (ip), vehicle: carboxymethylcellulose (CMC))?
Answer: 6 % of control

Question: What about the T/C (dose: 22.0 mg/kg/injection, schedule: Q07DX002 (ip), vehicle: carboxymethylcellulose (CMC)) of the same compound?
Answer: 33 % of control

Question: What about the T/C (dose: 25.0 mg/kg/injection, schedule: Q01DX006 (iv), vehicle: carboxymethylcellulose (CMC)) of the same compound?
Answer: 2 % of control

Question: What about the T/C [3] of the same compound?
Answer: 1 % of control

Question: What about the T/C (dose: 25.0 mg/kg/injection, schedule: Q01DX011 (sc), vehicle: carboxymethylcellulose (CMC)) of the same compound?
Answer: 1 % of control

Question: And the T/C (dose: 37.0 mg/kg/injection, schedule: Q01DX011 (ip), vehicle: carboxymethylcellulose (CMC))?
Answer: 2 % of control

Question: What about the T/C (dose: 37.0 mg/kg/injection, schedule: Q03DX004 (ip), vehicle: carboxymethylcellulose (CMC)) of the same compound?
Answer: 1 % of control

Question: And the T/C (dose: 44.0 mg/kg/injection, schedule: Q07DX002 (ip), vehicle: carboxymethylcellulose (CMC))?
Answer: 8 % of control

Question: And the T/C (dose: 75.0 mg/kg/injection, schedule: Q03DX004 (ip), vehicle: carboxymethylcellulose (CMC))?
Answer: 1 % of control

Question: And the T/C (dose: 87.0 mg/kg/injection, schedule: Q07DX002 (ip), vehicle: carboxymethylcellulose (CMC))?
Answer: 4 % of control and 8 % of control

Question: What about the T/C (dose: 350.0 mg/kg/injection, schedule: Q07DX002 (ip), vehicle: carboxymethylcellulose (CMC)) of the same compound?
Answer: 2 % of control

Question: `Cc1nc2nncn2c(=O)[nH]1` was tested. Which T/C (dose: 25.0 mg/kg/injection, schedule: Q01DX011 (ip), vehicle: saline) did it give?
Answer: 67 % of control

Question: And the T/C (dose: 75.0 mg/kg/injection, schedule: Q01DX011 (ip), vehicle: saline)?
Answer: 101 % of control

Question: What about the T/C (dose: 225.0 mg/kg/injection, schedule: Q01DX011 (ip), vehicle: saline) of the same compound?
Answer: 84 % of control
